Measurements as given in PubChem BioAssay AID290 (DTP/NCI, 2004).
Several values for one entry are separate records, joined by “and”; a condition that tells them apart may be missing. Identical values can stand only once. Inconclusive results are not listed.

System: mice, P1798 lymphosarcoma sc, survival or tumor weight T/C
Test: NCI In Vivo Anticancer Drug Screen. Data for tumor model P1798 Lymphosarcoma (subcutaneous) in unknown mice
Experimental: The antitumor activity of compounds was measured in mice bearing transplantable tumors. Survival or tumor size were measured and the results are expressed as the measurement made in the treated group (T) divided by the measurement made in the vehicle treated control group (C). The tumor model used in this assay is P1798 Lymphosarcoma (subcutaneous) in unknown mice

[1] = endpoint: mean tumor weight, dose: 3.75 mg/kg/injection, schedule: Q01DX010 (ip), vehicle: carboxymethylcellulose (CMC), higher = larger tumour
[2] = endpoint: mean tumor weight, dose: 7.5 mg/kg/injection, schedule: Q01DX010 (ip), vehicle: carboxymethylcellulose (CMC), higher = larger tumour
[3] = endpoint: mean tumor weight, dose: 1.25 mg/kg/injection, schedule: Q01DX010 (ip), vehicle: saline, higher = larger tumour
[4] = endpoint: mean tumor weight, dose: 2.5 mg/kg/injection, schedule: Q01DX010 (ip), vehicle: saline, higher = larger tumour

For `CSc1ncnc2nc[nH]c12`, the T/C (endpoint: mean tumor weight, dose: 25.0 mg/kg/injection, schedule: Q01DX010 (ip), vehicle: carboxymethylcellulose (CMC), higher = larger tumour) was 45 % of control, the T/C (endpoint: mean tumor weight, dose: 50.0 mg/kg/injection, schedule: Q01DX010 (ip), vehicle: carboxymethylcellulose (CMC), higher = larger tumour) was 61 % of control and the T/C (endpoint: mean tumor weight, dose: 100.0 mg/kg/injection, schedule: Q01DX010 (ip), vehicle: carboxymethylcellulose (CMC), higher = larger tumour) was 56 % of control.
For `COc1cccc2c1C(=O)c1c(O)c3c(c(O)c1C2=O)C[C@@](O)(C(=O)CO)C[C@@H]3OC1CC(N)C(O)C(C)O1` (stereo not given in full), the T/C (endpoint: median survival time, dose: 0.25 mg/kg/injection, schedule: Q01DX010 (ip), vehicle: water, higher = longer survival) was 84 % of control, the T/C (endpoint: median survival time, dose: 0.5 mg/kg/injection, schedule: Q01DX010 (ip), vehicle: water, higher = longer survival) was 102 % of control and the T/C (endpoint: median survival time, dose: 1.0 mg/kg/injection, schedule: Q01DX010 (ip), vehicle: water, higher = longer survival) was 93 % of control. The T/C (endpoint: median survival time, dose: 1.0 mg/kg/injection, schedule: Q04DX007 (ip), vehicle: water, higher = longer survival) was 108 % of control, the T/C (endpoint: median survival time, dose: 2.0 mg/kg/injection, schedule: Q01DX010 (ip), vehicle: water, higher = longer survival) was 36 % of control and the T/C (endpoint: median survival time, dose: 2.0 mg/kg/injection, schedule: Q04DX007 (ip), vehicle: water, higher = longer survival) was 107 % of control. For the same molecule, the T/C (endpoint: median survival time, dose: 4.0 mg/kg/injection, schedule: Q01DX010 (ip), vehicle: water, higher = longer survival) was 28 % of control.
For `COC1=C(N)C(=O)c2nc(-c3nc(C(=O)O)c(C)c(-c4ccc(OC)c(OC)c4O)c3N)ccc2C1=O`, the T/C (endpoint: mean tumor weight, dose: 0.05 mg/kg/injection, schedule: Q01DX010 (ip), vehicle: other, higher = larger tumour) was 65 % of control and the T/C (endpoint: mean tumor weight, dose: 0.1 mg/kg/injection, schedule: Q01DX010 (ip), vehicle: other, higher = larger tumour) was 39 % of control.
For `C[C@]12CCC(=O)C=C1CC[C@@H]1[C@@H]2C(=O)C[C@@]2(C)[C@H]1CC[C@]2(O)C(=O)CO`, the T/C (endpoint: mean tumor weight, dose: 100.0 mg/kg/injection, schedule: Q01DX010 (sc), vehicle: steriod suspending solution, higher = larger tumour) was 7 % of control and the T/C (endpoint: mean tumor weight, dose: 200.0 mg/kg/injection, schedule: Q01DX010 (sc), vehicle: steriod suspending solution, higher = larger tumour) was 1 % of control.
For `S=C(N=Nc1ccccc1)NNc1ccccc1`, the T/C (endpoint: mean tumor weight, dose: 37.5 mg/kg/injection, schedule: Q01DX010 (ip), vehicle: carboxymethylcellulose (CMC), higher = larger tumour) was 64 % of control.
With `[I][Hg][CH2]C1COC([CH2][Hg][I])CO1` (stereo not given) the T/C (endpoint: mean tumor weight, dose: 1.8 mg/kg/injection, schedule: Q01DX010 (ip), vehicle: carboxymethylcellulose (CMC), higher = larger tumour) was 64 % of control, the T/C [1] was 85 % of control and the T/C [2] was 81 % of control. For the same molecule, the T/C (endpoint: mean tumor weight, dose: 30.0 mg/kg/injection, schedule: Q01DX010 (ip), vehicle: carboxymethylcellulose (CMC), higher = larger tumour) was 65 % of control.
With `Nc1nc(F)nc2c1ncn2C1OC(CO)C(O)C1O` (stereo not given) the T/C (endpoint: mean tumor weight, dose: 0.75 mg/kg/injection, schedule: Q01DX011 (ip), vehicle: saline, higher = larger tumour) was 73 % of control and the T/C (endpoint: mean tumor weight, dose: 1.5 mg/kg/injection, schedule: Q01DX011 (ip), vehicle: saline, higher = larger tumour) was 30 % of control.
In the case of `Nc1nc(=S)c2ncn(C3OC(CO)C(O)C3O)c2[nH]1` (stereo not given), the T/C (endpoint: mean tumor weight, dose: 0.31 mg/kg/injection, schedule: Q01DX010 (ip), vehicle: carboxymethylcellulose (CMC), higher = larger tumour) is reported as 79 % of control, the T/C (endpoint: mean tumor weight, dose: 0.63 mg/kg/injection, schedule: Q01DX010 (ip), vehicle: carboxymethylcellulose (CMC), higher = larger tumour) is reported as 71 % of control and the T/C (endpoint: mean tumor weight, dose: 1.25 mg/kg/injection, schedule: Q01DX010 (ip), vehicle: carboxymethylcellulose (CMC), higher = larger tumour) is reported as 50 % of control. For the same molecule, the T/C (endpoint: mean tumor weight, dose: 2.0 mg/kg/injection, schedule: Q01DX010 (ip), vehicle: saline, higher = larger tumour) was 55 % of control, the T/C (endpoint: mean tumor weight, dose: 2.5 mg/kg/injection, schedule: Q01DX010 (ip), vehicle: carboxymethylcellulose (CMC), higher = larger tumour) was 31 % of control and the T/C (endpoint: mean tumor weight, dose: 4.0 mg/kg/injection, schedule: Q01DX010 (ip), vehicle: saline, higher = larger tumour) was 63 % of control.
For `Cc1cc(N(CCCl)CCCl)ccc1N=Nc1ccccc1C(=O)O`, the T/C [1] was 40 % of control and the T/C [2] was 26 % of control.
For `S=P(N1CC1)(N1CC1)N1CC1`, the T/C (endpoint: mean tumor weight, dose: 0.63 mg/kg/injection, schedule: Q01DX010 (ip), vehicle: saline, higher = larger tumour) was 95 % of control, the T/C [3] was 64 % of control and the T/C [4] was 24 % of control. For the same molecule, the T/C (endpoint: median survival time, dose: 0.75 mg/kg/injection, schedule: Q01DX010 (sc), vehicle: water, higher = longer survival) was 97 % of control, the T/C (endpoint: median survival time, dose: 1.5 mg/kg/injection, schedule: Q01DX010 (sc), vehicle: water, higher = longer survival) was 105 % of control and the T/C (endpoint: median survival time, dose: 3.0 mg/kg/injection, schedule: Q01DX010 (sc), vehicle: water, higher = longer survival) was 103 % of control. The T/C (endpoint: median survival time, dose: 6.0 mg/kg/injection, schedule: Q01DX010 (sc), vehicle: water, higher = longer survival) was 47 % of control and the T/C (endpoint: median survival time, dose: 12.0 mg/kg/injection, schedule: Q01DX010 (sc), vehicle: water, higher = longer survival) was 27 % of control.
In the case of `N[C@@H](Cc1ccc(N(CCCl)CCCl)cc1)C(=O)O`, the T/C [3] is reported as 49 % of control, the T/C [4] is reported as 29 % of control and the T/C (endpoint: mean tumor weight, dose: 4.0 mg/kg/injection, schedule: Q01DX011 (ip), vehicle: carboxymethylcellulose (CMC), higher = larger tumour) is reported as 13 % of control. For the same molecule, the T/C (endpoint: mean tumor weight, dose: 5.0 mg/kg/injection, schedule: Q01DX010 (ip), vehicle: saline, higher = larger tumour) was 16 % of control, the T/C (endpoint: median survival time, dose: 0.75 mg/kg/injection, schedule: Q01DX010 (sc), vehicle: saline, higher = longer survival) was 112 % of control and the T/C (endpoint: median survival time, dose: 1.5 mg/kg/injection, schedule: Q01DX010 (sc), vehicle: saline, higher = longer survival) was 104 % of control. For the same molecule, the T/C (endpoint: median survival time, dose: 3.0 mg/kg/injection, schedule: Q01DX010 (sc), vehicle: saline, higher = longer survival) was 75 % of control, the T/C (endpoint: median survival time, dose: 6.0 mg/kg/injection, schedule: Q01DX010 (sc), vehicle: saline, higher = longer survival) was 52 % of control and the T/C (endpoint: median survival time, dose: 12.0 mg/kg/injection, schedule: Q01DX010 (sc), vehicle: saline, higher = longer survival) was 26 % of control.
In the case of `CCN(CC)CCNc1ccc(C)c2sc3ccccc3c(=O)c12`, the T/C (endpoint: mean tumor weight, dose: 3.1 mg/kg/injection, schedule: Q01DX010 (ip), vehicle: methylcellulose (MC), higher = larger tumour) is reported as 108 % of control, the T/C (endpoint: mean tumor weight, dose: 5.0 mg/kg/injection, schedule: Q01DX010 (ip), vehicle: methylcellulose (MC), higher = larger tumour) is reported as 99 % of control and the T/C (endpoint: mean tumor weight, dose: 10.0 mg/kg/injection, schedule: Q01DX010 (ip), vehicle: methylcellulose (MC), higher = larger tumour) is reported as 68 % of control. The T/C (endpoint: mean tumor weight, dose: 20.0 mg/kg/injection, schedule: Q01DX010 (ip), vehicle: methylcellulose (MC), higher = larger tumour) was 104 % of control.
With `CS(=O)(=O)OCCCCOS(C)(=O)=O` the T/C (endpoint: mean tumor weight, dose: 2.0 mg/kg/injection, schedule: Q01DX010 (ip), vehicle: methylcellulose (MC), higher = larger tumour) was 74 % of control and 85 % of control, the T/C (endpoint: mean tumor weight, dose: 4.0 mg/kg/injection, schedule: Q01DX010 (ip), vehicle: methylcellulose (MC), higher = larger tumour) was 95 % of control and the T/C (endpoint: mean tumor weight, dose: 8.0 mg/kg/injection, schedule: Q01DX010 (ip), vehicle: methylcellulose (MC), higher = larger tumour) was 117 % of control and 92 % of control. The T/C (endpoint: mean tumor weight, dose: 16.0 mg/kg/injection, schedule: Q01DX010 (ip), vehicle: methylcellulose (MC), higher = larger tumour) was 50 % of control.
`O=CCC(O)C(O)C(O)CO` (stereo not given) was tested, and the T/C (endpoint: mean tumor weight, dose: 16.0 mg/kg/injection, schedule: Q01DX010 (ip), vehicle: carboxymethylcellulose (CMC), higher = larger tumour) was 67 % of control, the T/C (endpoint: mean tumor weight, dose: 31.2 mg/kg/injection, schedule: Q01DX010 (ip), vehicle: carboxymethylcellulose (CMC), higher = larger tumour) was 74 % of control and the T/C (endpoint: mean tumor weight, dose: 62.5 mg/kg/injection, schedule: Q01DX010 (ip), vehicle: carboxymethylcellulose (CMC), higher = larger tumour) was 70 % of control. The T/C (endpoint: mean tumor weight, dose: 125.0 mg/kg/injection, schedule: Q01DX010 (ip), vehicle: carboxymethylcellulose (CMC), higher = larger tumour) was 36 % of control and 61 % of control, the T/C (endpoint: mean tumor weight, dose: 250.0 mg/kg/injection, schedule: Q01DX010 (ip), vehicle: carboxymethylcellulose (CMC), higher = larger tumour) was 44 % of control and the T/C (endpoint: mean tumor weight, dose: 500.0 mg/kg/injection, schedule: Q01DX010 (ip), vehicle: carboxymethylcellulose (CMC), higher = larger tumour) was 42 % of control. For the same molecule, the T/C (endpoint: mean tumor weight, dose: 1000.0 mg/kg/injection, schedule: Q01DX010 (ip), vehicle: carboxymethylcellulose (CMC), higher = larger tumour) was 19 % of control.
With `C[C@@H]1C[C@H]2CC[C@H](O2)[C@H](C)C(=O)O[C@@H](C)C[C@@H]2CC[C@@H](O2)[C@@H](C)C(=O)O[C@H](C)C[C@H]2CC[C@H](O2)[C@H](C)C(=O)O[C@@H](C)C[C@@H]2CC[C@@H](O2)[C@@H](C)C(=O)O1` the T/C (endpoint: mean tumor weight, dose: 45.0 mg/kg/injection, schedule: Q01DX011 (ip), vehicle: other, higher = larger tumour) was 93 % of control, the T/C (endpoint: mean tumor weight, dose: 90.0 mg/kg/injection, schedule: Q01DX011 (ip), vehicle: other, higher = larger tumour) was 89 % of control and the T/C (endpoint: mean tumor weight, dose: 180.0 mg/kg/injection, schedule: Q01DX011 (ip), vehicle: other, higher = larger tumour) was 83 % of control. For the same molecule, the T/C (endpoint: mean tumor weight, dose: 360.0 mg/kg/injection, schedule: Q01DX011 (ip), vehicle: other, higher = larger tumour) was 61 % of control.
